# Results: ChEMBL document CHEMBL1201862, “PubChem BioAssay data set” (2004)
# Activity calls are given as the source filed them.
# How the values were obtained:
# [1] = A Cell Based Secondary Assay To Explore Cytotoxicity of Compounds that Sensitize Mycobacterium Tuberculosis to Beta-Lactam Antibiotics.; type: functional
# [2] = target: Voltage-dependent T-type calcium channel subunit alpha-1H (Homo sapiens, UniProt O95180); type: functional;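 note: channel activity triggered by adding a high calcium stimulation buffer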
# cells [3] = test: cells
# [4] = viability of uninfected HEp-2 cells – cell-based, HTS, cytotoxicity control for RSV inhibitor project, dose response (AID 2410); type: functional; conditions: human respiratory syncytial virus
# cells [5] = type: functional
# [6] = target: T1, Microphthalmia-associated transcription factor (Homo sapiens, UniProt O75030); test: reducers of TRPM1 reporter luminescence, concentration series – cell-based, SK-MEL-5, cherry-picked, set 3, MITF inhibitor project, dose response (AID 493073); type: functional;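 note: SK-MEL-5 melanoma cells with luciferase driven by the MITF target TRPM1 promoter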
# T1 sequence (O75030 whole entry): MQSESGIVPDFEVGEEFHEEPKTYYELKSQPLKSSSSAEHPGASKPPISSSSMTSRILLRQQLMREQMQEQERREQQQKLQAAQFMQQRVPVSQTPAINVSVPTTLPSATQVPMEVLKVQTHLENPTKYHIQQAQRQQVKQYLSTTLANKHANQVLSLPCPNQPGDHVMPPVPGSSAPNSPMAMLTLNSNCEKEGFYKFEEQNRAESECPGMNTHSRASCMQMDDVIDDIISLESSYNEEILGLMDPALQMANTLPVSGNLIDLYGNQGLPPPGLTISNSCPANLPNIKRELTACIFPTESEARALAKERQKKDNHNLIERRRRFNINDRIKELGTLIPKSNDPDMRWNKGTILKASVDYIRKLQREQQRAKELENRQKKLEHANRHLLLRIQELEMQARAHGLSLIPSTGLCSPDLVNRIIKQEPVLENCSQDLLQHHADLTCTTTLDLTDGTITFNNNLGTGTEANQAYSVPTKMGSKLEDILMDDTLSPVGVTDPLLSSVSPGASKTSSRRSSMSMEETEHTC
# [7] = fluconazole-exposed Candida albicans growth modulators – fluorescence, retest, confirmation (AID 2467); type: functional, cell-based
# [8] = test system: Streptococcus sp. 'group A'; test: Streptococcus pyogenes SK(-)GAS viability under kanamycin – luminescence, BacTiterGlo, confirmation, counter-screen for streptokinase expression inhibitor project, dose response (AID 1900); type: functional, organism-based
# Streptococcus = test: GAS UMAA2166 growth inhibition – luminescence, BacTiterGlo, counter-screen for streptokinase expression inhibitor project, dose response (AID 1915); type: functional, organism-based;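 note: potency for reduction of bacterial viability or growth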
# [9] = NIH-3T3 fibroblast cytotoxicity, dose response, cytotoxicity control, cell-based, fluorescence, Alamar Blue, secondary assay (AID 2327); type: functional;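 note: NIH-3T3 mouse fibroblasts cultured with fluconazole at 8 µg/mL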
# [10] = target: T2, Short transient receptor potential channel 4 (Mus musculus, UniProt Q9QUQ5); test: calcium entry via TRPC4 opening agents – cell-based, HEK293 TRPC4/mu-opioid, Fluo-4 calcium, dose response (AID 434937); type: functional
# T2 sequence (Q9QUQ5 whole entry): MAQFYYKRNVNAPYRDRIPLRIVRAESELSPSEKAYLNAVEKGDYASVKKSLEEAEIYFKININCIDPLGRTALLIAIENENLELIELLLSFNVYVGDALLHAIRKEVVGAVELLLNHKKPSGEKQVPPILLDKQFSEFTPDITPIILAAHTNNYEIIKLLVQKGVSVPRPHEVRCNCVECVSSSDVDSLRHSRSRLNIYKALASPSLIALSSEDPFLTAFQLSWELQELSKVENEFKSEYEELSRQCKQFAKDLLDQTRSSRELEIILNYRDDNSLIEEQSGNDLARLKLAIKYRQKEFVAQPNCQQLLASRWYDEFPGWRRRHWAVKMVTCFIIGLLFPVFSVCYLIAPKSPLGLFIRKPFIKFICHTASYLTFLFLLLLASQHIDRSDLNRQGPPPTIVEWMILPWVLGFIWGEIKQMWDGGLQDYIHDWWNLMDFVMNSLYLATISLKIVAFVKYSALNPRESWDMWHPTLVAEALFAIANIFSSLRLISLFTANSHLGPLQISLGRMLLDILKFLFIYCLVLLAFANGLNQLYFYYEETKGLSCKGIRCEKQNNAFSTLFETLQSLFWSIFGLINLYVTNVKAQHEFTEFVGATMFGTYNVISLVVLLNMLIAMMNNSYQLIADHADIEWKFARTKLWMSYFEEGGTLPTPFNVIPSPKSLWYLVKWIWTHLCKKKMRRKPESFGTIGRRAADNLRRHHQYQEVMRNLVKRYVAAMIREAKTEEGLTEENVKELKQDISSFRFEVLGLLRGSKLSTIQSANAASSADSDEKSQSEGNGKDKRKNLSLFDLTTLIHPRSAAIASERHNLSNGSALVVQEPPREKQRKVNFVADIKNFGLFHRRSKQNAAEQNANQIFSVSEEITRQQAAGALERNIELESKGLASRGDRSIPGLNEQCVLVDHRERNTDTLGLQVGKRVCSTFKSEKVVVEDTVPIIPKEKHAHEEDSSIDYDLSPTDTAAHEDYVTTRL
# [11] = Luminescence Cell-Based Dose Retest to Confirm Inhibitors of Cancer Stem Cells. [Related pubchem assays (depositor defined):AID2717, AID2721]; type: functional; conditions: Homo sapiens
# INS1 = test: INS-1E survival protection against cytokine death – cell-based, luminescence, retest, dose response (AID 449756); type: functional; conditions: Rattus norvegicus, INS1;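 note: cell death triggered by IL-1 beta plus TNF-alpha plus IFN-gamma mixture; protective hits raise ATP signal compared with cytokine alone wells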
# Beta-galactosidase = Beta-galactosidase (Escherichia coli, UniProt Q8VNN2); test: detection-enzyme interference by beta-gal modulators – biochemical, E. coli enzyme, set 3, artefact control for CCR6 antagonist project, dose response (AID 504712); type: functional
# Genome polyprotein = Genome polyprotein (dengue virus type 2, UniProt P29990); test: flavivirus cap methylation enzyme inhibition – biochemical, confirmation dose response, primary screen (AID 588689); type: functional
# [12] = target: Glyceraldehyde-3-phosphate dehydrogenase (Homo sapiens, UniProt P04406)
# [13] = target: T3, Carboxy-terminal domain RNA polymerase II polypeptide A small phosphatase 1 (Homo sapiens, UniProt Q9GZU7); test: CTDSP1 inhibitors, concentration-response, biochemical, absorbance readout, ultra-high-throughput screen actives (AID 540297); type: functional
# T3 sequence (Q9GZU7 whole entry): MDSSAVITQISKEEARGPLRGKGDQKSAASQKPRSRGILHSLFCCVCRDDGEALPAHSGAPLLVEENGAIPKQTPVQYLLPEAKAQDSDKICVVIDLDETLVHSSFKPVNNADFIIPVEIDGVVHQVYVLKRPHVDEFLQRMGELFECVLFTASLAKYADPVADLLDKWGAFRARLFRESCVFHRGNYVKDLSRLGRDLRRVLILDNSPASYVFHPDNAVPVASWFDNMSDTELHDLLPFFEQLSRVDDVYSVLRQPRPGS
# [14] = Luminescence Cell-Based Dose Confirmation HTS to Identify Activators of 5'UTR Stem-Loop Driven Alpha-Synuclein mRNA Translation in H4 Neuroglioblastoma Cells. [Related pubchem assays: 1829 (Project Summary), 1814 (Primary HTS)]; type: functional
# [15] = Luminescence Cell-Based Dose Response HTS to Identify Activators of Luciferase Translation or Activity in H4 […] Cells. [Related pubchem assays: 1829 (Project Summary), 1814 (Primary HTS)]; type: functional
# H4 = test: Luminescence Cell-Based Dose Response HTS to Identify Activators of 5'UTR Stem-Loop Driven Prion Protein mRNA Translation in H4 Neuroglioblastoma Cells. [Related pubchem assays: 1829 (Project Summary), 1814 (Primary HTS)]; type: functional; conditions: Homo sapiens
# HEK293 [16] = test: cells; type: functional, cell-based; conditions: Homo sapiens
# [17] = target: T4, Nucleotide-binding oligomerization domain-containing protein 1 (Homo sapiens, UniProt Q9Y239); test: blockers of NOD1 pathway activity – revised, SAR follow-up (AID 2333); type: functional
# T4 sequence (Q9Y239 whole entry): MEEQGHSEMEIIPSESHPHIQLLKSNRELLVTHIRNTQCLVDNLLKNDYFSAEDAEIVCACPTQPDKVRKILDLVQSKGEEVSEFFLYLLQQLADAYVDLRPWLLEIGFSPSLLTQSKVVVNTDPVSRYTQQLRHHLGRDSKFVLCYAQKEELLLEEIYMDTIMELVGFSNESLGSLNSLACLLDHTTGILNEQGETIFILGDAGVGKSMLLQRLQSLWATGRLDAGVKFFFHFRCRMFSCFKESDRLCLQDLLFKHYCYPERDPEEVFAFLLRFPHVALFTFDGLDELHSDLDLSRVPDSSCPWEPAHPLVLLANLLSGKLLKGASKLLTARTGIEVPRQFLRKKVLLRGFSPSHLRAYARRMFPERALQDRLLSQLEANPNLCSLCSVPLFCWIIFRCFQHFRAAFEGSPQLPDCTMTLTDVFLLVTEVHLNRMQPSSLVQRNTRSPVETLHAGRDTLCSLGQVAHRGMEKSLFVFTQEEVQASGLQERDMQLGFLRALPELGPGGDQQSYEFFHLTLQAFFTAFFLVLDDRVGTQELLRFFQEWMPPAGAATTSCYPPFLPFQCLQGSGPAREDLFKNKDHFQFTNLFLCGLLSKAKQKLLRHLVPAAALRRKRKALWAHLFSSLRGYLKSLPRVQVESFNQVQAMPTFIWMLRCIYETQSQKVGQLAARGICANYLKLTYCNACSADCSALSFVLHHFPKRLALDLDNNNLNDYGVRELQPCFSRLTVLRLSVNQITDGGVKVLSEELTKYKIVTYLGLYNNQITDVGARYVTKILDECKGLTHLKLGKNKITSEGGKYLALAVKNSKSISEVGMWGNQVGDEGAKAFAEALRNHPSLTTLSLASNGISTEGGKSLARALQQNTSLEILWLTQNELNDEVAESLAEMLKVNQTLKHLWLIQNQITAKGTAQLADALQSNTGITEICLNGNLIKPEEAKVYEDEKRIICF
# HEK293 [18] = test: cells; conditions: Homo sapiens
# Tumor necrosis factor = Tumor necrosis factor (Homo sapiens, UniProt P01375); test: analog potency on TNFa NF-kB signaling – cell-based, revised, SAR follow-up (AID 2337); type: functional
# HEK293 [19] = test: inhibition of NOD1-driven NF-kB reporter – cell-based, luminescence, uHTS, primary screen (AID 1578); type: functional; conditions: Homo sapiens
# HEK293 [20] = test: NOD2 signaling inhibitors in MDP-stimulated cells, cell-based, uHTS, luminescence (AID 2001); type: functional; conditions: Homo sapiens
# HEK293 [21] = test: cells; type: functional, cell-based; conditions: Homo sapiens; remark: listed apart in the source
# Voltage-dependent T-type calcium channel subunit alpha-1H, sequence (O95180 whole entry): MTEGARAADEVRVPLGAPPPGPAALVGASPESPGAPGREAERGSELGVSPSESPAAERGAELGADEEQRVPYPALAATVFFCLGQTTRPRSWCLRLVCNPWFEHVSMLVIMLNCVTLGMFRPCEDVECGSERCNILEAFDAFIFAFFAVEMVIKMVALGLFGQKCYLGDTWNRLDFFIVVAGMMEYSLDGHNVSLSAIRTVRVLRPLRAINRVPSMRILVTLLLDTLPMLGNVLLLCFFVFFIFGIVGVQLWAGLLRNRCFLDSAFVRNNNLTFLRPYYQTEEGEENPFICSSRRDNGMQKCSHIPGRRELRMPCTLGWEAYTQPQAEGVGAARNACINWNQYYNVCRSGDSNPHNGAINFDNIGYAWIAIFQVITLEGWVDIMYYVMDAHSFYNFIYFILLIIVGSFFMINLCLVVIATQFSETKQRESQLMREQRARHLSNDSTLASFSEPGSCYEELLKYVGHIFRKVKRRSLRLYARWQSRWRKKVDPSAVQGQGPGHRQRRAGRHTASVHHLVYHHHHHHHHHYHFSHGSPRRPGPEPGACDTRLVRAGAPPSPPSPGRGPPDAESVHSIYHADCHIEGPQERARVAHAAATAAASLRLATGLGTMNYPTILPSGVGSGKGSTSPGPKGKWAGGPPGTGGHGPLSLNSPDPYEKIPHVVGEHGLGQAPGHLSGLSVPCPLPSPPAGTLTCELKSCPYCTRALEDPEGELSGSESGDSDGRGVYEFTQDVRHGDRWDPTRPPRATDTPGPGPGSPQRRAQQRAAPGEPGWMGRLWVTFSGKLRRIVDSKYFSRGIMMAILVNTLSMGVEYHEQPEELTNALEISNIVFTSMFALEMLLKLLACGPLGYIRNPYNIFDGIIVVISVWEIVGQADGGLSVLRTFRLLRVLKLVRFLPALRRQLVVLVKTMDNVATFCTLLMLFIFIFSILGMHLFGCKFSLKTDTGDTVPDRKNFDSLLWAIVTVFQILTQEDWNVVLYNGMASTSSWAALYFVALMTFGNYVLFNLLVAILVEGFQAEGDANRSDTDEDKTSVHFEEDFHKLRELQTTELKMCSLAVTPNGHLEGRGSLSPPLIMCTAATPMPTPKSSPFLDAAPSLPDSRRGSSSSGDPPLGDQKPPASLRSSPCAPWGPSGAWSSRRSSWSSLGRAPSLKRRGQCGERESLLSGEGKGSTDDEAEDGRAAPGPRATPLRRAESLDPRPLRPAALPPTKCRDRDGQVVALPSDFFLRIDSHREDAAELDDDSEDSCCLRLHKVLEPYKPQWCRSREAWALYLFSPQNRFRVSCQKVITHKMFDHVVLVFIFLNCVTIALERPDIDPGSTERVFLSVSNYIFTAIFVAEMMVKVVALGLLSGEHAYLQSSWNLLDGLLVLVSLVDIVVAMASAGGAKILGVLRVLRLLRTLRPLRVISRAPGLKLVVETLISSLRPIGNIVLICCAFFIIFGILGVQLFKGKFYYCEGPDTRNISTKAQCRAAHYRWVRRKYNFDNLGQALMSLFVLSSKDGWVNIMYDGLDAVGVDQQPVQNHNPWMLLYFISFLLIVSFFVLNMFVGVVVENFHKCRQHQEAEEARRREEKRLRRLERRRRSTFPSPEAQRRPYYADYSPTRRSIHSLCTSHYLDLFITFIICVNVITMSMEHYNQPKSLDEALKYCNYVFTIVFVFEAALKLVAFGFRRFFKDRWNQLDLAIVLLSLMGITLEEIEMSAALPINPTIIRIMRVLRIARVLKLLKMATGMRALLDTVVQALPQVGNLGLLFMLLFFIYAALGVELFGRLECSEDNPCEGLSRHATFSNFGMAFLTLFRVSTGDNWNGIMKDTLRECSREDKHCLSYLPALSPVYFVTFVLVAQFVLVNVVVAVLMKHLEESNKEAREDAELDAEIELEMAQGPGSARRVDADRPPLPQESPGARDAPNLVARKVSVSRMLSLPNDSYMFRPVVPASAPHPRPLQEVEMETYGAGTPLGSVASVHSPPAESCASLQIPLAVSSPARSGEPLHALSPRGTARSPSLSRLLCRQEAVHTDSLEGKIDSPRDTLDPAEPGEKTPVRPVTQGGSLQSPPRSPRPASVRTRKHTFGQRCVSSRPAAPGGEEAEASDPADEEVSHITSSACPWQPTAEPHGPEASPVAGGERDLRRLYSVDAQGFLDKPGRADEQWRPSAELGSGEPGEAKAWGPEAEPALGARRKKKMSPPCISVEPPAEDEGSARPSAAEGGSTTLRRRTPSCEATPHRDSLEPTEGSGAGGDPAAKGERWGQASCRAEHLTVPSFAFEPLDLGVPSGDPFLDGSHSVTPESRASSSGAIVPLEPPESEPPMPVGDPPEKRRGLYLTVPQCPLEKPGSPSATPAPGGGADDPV
# Genome polyprotein, sequence (P29990 2492-3391 limits assumed): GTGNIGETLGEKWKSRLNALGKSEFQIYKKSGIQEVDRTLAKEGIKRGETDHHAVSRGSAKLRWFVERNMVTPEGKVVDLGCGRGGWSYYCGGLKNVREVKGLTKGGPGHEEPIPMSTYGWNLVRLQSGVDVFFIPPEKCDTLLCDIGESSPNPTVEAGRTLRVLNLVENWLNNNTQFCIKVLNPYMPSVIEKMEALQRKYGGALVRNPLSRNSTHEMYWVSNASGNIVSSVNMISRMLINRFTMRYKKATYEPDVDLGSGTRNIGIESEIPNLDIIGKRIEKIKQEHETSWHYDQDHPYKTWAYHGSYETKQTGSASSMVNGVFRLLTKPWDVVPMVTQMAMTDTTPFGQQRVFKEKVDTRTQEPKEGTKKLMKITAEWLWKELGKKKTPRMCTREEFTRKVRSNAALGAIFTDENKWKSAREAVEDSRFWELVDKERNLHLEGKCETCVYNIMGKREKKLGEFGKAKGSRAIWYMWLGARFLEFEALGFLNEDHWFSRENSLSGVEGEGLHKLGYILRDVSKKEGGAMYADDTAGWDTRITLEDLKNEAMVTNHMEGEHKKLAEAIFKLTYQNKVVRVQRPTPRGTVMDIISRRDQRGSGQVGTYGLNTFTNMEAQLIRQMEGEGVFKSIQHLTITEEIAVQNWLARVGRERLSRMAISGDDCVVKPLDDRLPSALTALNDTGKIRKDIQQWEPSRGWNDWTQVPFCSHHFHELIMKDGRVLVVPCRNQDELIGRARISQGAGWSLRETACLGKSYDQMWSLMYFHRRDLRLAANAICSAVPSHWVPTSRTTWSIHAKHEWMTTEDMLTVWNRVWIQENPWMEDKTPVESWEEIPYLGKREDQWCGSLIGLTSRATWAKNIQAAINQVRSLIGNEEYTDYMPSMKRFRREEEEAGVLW
# Glyceraldehyde-3-phosphate dehydrogenase, sequence (P04406 whole entry, the tested form may be a part): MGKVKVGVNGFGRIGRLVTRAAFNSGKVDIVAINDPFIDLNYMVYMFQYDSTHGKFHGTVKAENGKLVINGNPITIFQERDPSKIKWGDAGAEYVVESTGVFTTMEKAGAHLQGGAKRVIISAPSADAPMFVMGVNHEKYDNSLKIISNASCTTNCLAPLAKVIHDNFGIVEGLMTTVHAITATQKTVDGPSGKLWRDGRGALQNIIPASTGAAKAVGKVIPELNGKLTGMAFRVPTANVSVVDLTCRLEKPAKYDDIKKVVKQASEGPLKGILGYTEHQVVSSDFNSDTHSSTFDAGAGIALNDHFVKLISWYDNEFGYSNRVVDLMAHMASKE
# Tumor necrosis factor, sequence (P01375 whole entry): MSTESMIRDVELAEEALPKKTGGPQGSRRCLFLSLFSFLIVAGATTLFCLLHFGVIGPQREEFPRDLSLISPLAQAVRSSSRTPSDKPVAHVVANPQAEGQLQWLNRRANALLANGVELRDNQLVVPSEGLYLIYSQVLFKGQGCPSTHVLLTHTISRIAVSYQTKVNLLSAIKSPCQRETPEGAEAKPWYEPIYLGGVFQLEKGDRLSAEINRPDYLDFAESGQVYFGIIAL
# Beta-galactosidase, sequence (Q8VNN2 whole entry): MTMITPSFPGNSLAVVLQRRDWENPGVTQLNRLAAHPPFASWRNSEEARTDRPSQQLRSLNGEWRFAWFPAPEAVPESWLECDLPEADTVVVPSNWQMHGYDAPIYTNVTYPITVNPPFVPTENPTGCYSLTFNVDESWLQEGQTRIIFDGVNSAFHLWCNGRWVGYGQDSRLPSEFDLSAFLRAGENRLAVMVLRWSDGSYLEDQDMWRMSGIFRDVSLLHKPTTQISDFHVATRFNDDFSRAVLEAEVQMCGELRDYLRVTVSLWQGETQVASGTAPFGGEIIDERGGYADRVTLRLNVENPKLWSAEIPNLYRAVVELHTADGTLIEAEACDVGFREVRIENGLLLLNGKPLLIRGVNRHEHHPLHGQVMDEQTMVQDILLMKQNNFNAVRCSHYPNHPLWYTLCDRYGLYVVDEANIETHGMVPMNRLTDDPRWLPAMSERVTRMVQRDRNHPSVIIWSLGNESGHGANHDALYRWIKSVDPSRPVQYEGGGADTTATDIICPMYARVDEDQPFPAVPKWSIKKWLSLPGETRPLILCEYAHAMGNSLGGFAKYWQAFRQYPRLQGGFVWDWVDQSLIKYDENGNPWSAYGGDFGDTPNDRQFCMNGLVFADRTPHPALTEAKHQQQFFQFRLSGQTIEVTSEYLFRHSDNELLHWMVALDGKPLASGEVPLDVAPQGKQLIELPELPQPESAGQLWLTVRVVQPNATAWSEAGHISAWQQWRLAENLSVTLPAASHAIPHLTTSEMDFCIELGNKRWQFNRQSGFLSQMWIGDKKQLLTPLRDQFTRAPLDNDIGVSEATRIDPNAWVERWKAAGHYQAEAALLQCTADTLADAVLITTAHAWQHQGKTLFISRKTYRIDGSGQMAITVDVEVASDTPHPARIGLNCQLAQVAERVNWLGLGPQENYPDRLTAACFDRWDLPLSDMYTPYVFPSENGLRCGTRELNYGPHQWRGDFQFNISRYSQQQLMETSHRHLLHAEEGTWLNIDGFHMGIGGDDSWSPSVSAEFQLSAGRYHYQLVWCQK
compound,measurement,setting,value
O=c1oc(CCCO)cc2ccc(C#Cc3ccsc3)cc12,CC50,[1],> 40 µM (active)
CSc1ncccc1C(=O)Nc1nc2ccc(Oc3ccccc3)cc2s1,CC50,[1],> 40 µM (active)
Clc1ccc(CN(CC2CCCO2)C(c2cccs2)c2nnnn2C2CCCC2)cc1 (stereo not drawn),EC50,[2],6.56 µM (active)
CCOc1ccc(-c2cc(C(=O)O)c3ccccc3n2)c(OCC)c1,IC50,cells [3],19.7 µM (active)
same,CC50,[4],42 µM (active)
O=C(N/N=C/c1ccccn1)c1cc([N+](=O)[O-])cc([N+](=O)[O-])c1,IC50,cells [5],40.2 µM (active)
same,AC50,[6],6.54 µM (active)
O=C(COc1ccccc1)NNC(=S)NC(=O)c1ccc(Cl)cc1Cl,EC50,[7],> 38 µM (not active)
same,EC50,[8],0.623 µM (active)
same,EC50,Streptococcus,2.96 µM (active)
same,EC50,[9],110 µM (active)
same,EC50,[10],4.73 µM (active)
CC(=O)NC(c1cc(Cl)c2cccnc2c1O)C1CC1 (stereo not drawn),AC50,[11],3.26 µM (active)
same,AC50,INS1,1.91 µM (active)
same,CC50,[1],5.47 µM (active)
CCOC(=O)C1(Cc2ccccc2)CCN(Cc2c[nH]nc2-c2ccccc2)CC1,EC50,[10],6.68 µM (active)
CCN(CC)S(=O)(=O)c1cccc(-c2nnc(SCCOc3ccccc3C)o2)c1,EC50,[2],9.91 µM (active)
O=C(NC1CC1)C1=C[C@H](c2csc3ccccc23)C[C@H](OCc2ccc(CO)cc2)O1,EC50,[10],10.6 µM (active)
Cc1cc([N+](=O)[O-])ccc1NC(=S)NC(=O)Cc1ccccc1,IC50,Beta-galactosidase,> 66.6 µM (inactive)
CCOc1cc(/C=N/Nc2ccc(S(=O)(=O)Nc3ccccc3C(=O)O)cc2[N+](=O)[O-])cc(Cl)c1O,IC50,Genome polyprotein,30.4 µM (active)
COc1cccc(N2C(=O)C(Cl)=C(N3CCN[C@@H](C)C3)C2=O)c1,IC50,[12],> 50 µM (inconclusive)
CCOC(=O)Cc1c(C)c2c(O)cc(O)cc2oc1=O,IC50,cells [3],15.1 µM (active)
same,CC50,[4],47.7 µM (active)
O=C(O)CN1C(=O)/C(=C2\C(=O)N(Cc3ccccc3Cl)c3ccccc32)SC1=S,IC50,[13],2.61 µM (active)
same,IC50,Genome polyprotein,28.2 µM (active)
Cc1cccc(N2C(=O)C(Cl)=C(N(C)C)C2=O)c1,IC50,[12],> 50 µM (inconclusive)
COC(=O)c1ccc(N2CCN(C)CC2)c(NC(=O)COc2ccccc2)c1,EC50,[10],5.96 µM (active)
O=S(=O)(c1ccc(Cl)cc1)N1CCCC1c1nc2ccccc2s1 (stereo not drawn),EC50,[2],6.61 µM (active)
CSc1ccc(N=Nc2c(C)[nH]n(C)c2=O)cc1,IC50,cells [5],15.6 µM (active)
COc1ccc(C(=O)/C=C/c2cccs2)c(OC(=O)c2cccc([N+](=O)[O-])c2)c1,EC50,[14],> 120 µM (not active)
same,EC50,[15],4.7 µM (active)
same,EC50,H4,10.6 µM (active)
same,CC50,[1],38.5 µM (active)
C=CC/N=c1\scc(-c2ccc(F)cc2)n1/N=C/c1ccccn1,CC50,[1],> 40 µM (active)
COc1ccc(-c2cc(=O)oc3cc(OCC(=O)Nc4ccc(CCO)cc4)ccc23)cc1,IC50,HEK293 [16],> 20 µM (inactive)
same,IC50,[17],5.18 µM (active)
same,IC50,HEK293 [18],> 20 µM (inactive)
same,IC50,Tumor necrosis factor,> 20 µM (inactive)
same,EC50,HEK293 [19],9.26 µM (active)
same,IC50,HEK293 [20],> 20 µM (inactive)
same,IC50,HEK293 [21],> 20 µM (inactive)
O=C(CC1C(=O)NCCN1Cc1ccc(-c2ccccc2)cc1)NCCc1ccccn1 (stereo not drawn),EC50,[10],4.73 µM (active)
CCOC(=O)Cc1csc(NC(=O)COc2ccc3ccccc3c2)n1,EC50,[2],2.56 µM (active)
